Experimental data: PMC7265341, “Quantifying CDK inhibitor selectivity in live cells” (Nature Communications, 2020)
Read-outs that look alike come from different tables or passages of the source.

Columns and labels:
CDK6/Cyclin D1 = CDK6/Cyclin D1 (Homo sapiens, UniProt Q00534); test: NanoBRET live-cell target engagement, NanoLuc-CDK6/Cyclin D1 in HEK-293; format: binding; settings: read-out: Inhibition at 10µM (%), CDK6/D1
CDK8/Cyclin C = CDK8/Cyclin C (Homo sapiens, UniProt P49336); test: NanoBRET live-cell target engagement, NanoLuc-CDK8/Cyclin C in HEK-293; format: binding; settings: CDK8/C, read-out: Inhibition at 10µM (%)
CDK11A/Cyclin L2 = target: T1, CDK11A/Cyclin L2 (Homo sapiens, UniProt Q9UQ88); test: NanoBRET live-cell target engagement, CDK11A-NanoLuc/Cyclin L2 in HEK-293; format: binding; settings: CDK11a/L2, read-out: Inhibition at 10µM (%)
T1 sequence (Q9UQ88 1-783): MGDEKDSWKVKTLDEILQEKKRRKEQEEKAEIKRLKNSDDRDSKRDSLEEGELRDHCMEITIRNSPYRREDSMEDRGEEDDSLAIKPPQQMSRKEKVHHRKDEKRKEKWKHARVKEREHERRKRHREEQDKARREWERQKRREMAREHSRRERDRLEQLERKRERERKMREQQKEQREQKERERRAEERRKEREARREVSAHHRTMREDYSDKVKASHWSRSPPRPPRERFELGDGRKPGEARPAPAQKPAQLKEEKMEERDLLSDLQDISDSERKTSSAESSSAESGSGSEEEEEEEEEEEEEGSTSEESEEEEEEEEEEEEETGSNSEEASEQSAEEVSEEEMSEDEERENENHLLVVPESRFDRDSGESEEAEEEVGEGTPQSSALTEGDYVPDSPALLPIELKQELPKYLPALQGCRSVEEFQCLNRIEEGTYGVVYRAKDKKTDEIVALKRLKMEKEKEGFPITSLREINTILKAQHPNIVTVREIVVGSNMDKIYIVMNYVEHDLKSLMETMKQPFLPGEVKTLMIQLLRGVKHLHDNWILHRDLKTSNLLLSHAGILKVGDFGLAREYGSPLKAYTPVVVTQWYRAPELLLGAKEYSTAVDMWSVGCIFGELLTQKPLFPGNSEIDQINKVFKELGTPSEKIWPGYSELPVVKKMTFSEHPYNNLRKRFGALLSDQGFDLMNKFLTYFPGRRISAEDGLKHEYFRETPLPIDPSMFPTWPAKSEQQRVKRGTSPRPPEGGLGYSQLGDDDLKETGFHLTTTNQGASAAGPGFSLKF

CDK11B/Cyclin L2 = CDK11B/Cyclin L2 (Homo sapiens, UniProt P21127); test: NanoBRET live-cell target engagement, CDK11B-NanoLuc/Cyclin L2 in HEK-293; format: binding; settings: CDK11b/L2, read-out: Inhibition at 10µM (%)
CDK12/Cyclin K = CDK12/Cyclin K (Homo sapiens, UniProt Q9NYV4); test: NanoBRET live-cell target engagement, CDK12-NanoLuc/Cyclin K in HEK-293; format: binding; settings: CDK12/K, read-out: Inhibition at 10µM (%)
CDK13/Cyclin K = CDK13/Cyclin K (Homo sapiens, UniProt Q14004); test: NanoBRET live-cell target engagement, CDK13-NanoLuc/Cyclin K in HEK-293; format: binding; settings: CDK13/K, read-out: Inhibition at 10µM (%)
CDK14/Cyclin Y = CDK14/Cyclin Y (Homo sapiens, UniProt O94921); test: NanoBRET live-cell target engagement, CDK14-NanoLuc/Cyclin Y in HEK-293; format: binding; settings: CDK14/Y, read-out: Inhibition at 10µM (%)
CDK15/Cyclin Y = CDK15/Cyclin Y (Homo sapiens, UniProt Q96Q40); test: NanoBRET live-cell target engagement, NanoLuc-CDK15/Cyclin Y in HEK-293; format: binding
CDK16/Cyclin Y = CDK16/Cyclin Y (Homo sapiens, UniProt Q00536); test: NanoBRET live-cell target engagement, CDK16-NanoLuc/Cyclin Y in HEK-293; format: binding; settings: CDK16/Y, read-out: Inhibition at 10µM (%)
CDK17/Cyclin Y = CDK17/Cyclin Y (Homo sapiens, UniProt Q00537); test: NanoBRET live-cell target engagement, CDK17-NanoLuc/Cyclin Y in HEK-293; format: binding
CDK18/Cyclin Y = CDK18/Cyclin Y (Homo sapiens, UniProt Q07002); test: NanoBRET live-cell target engagement, CDK18-NanoLuc/Cyclin Y in HEK-293; format: binding; settings: CDK18/Y, read-out: Inhibition at 10µM (%)
CDK20/Cyclin H = CDK20/Cyclin H (Homo sapiens, UniProt Q8IZL9); test: NanoBRET live-cell target engagement, NanoLuc-CDK20/Cyclin H in HEK-293; format: binding
all 21 human CDKs = test: Live-cell selectivity profile across all 21 CDK/cyclin complexes in HEK-293; format: binding
CDK19/Cyclin C = CDK19/Cyclin C (Homo sapiens, UniProt Q9BWU1); test: NanoBRET live-cell target engagement, NanoLuc-CDK19/Cyclin C in HEK-293; settings: read-out: Inhibition at 10µM (%), CDK19/C
CDK10/Cyclin L2 = CDK10/Cyclin L2 (Homo sapiens, UniProt Q15131); test: NanoBRET live-cell target engagement, CDK10-NanoLuc/Cyclin L2 in HEK-293; settings: read-out: Inhibition at 10µM (%), CDK10/L2
CDK4/Cyclin D1 = CDK4/Cyclin D1 (Homo sapiens, UniProt P11802); test: NanoBRET live-cell target engagement, NanoLuc-CDK4/Cyclin D1 in HEK-293; format: binding; settings: CDK4/D1, read-out: Inhibition at 10µM (%)
CDK5/CDK5R1 = CDK5/CDK5R1 (Homo sapiens, UniProt Q00535); test: NanoBRET live-cell target engagement, CDK5-NanoLuc/CDK5R1 in HEK-293; format: binding; settings: CDK5/CDK5R1, read-out: Inhibition at 10µM (%)
[1] = CDK15/Y, average, read-out: Inhibition at 10µM (%)
[2] = CDK15/Y, experiment 2, read-out: Inhibition at 10µM (%)
[3] = CDK17/Y, average, read-out: Inhibition at 10µM (%)
[4] = CDK17/Y, experiment 2, read-out: Inhibition at 10µM (%)

CDK12/Cyclin K, sequence (Q9NYV4 1-1481 isoform Q9NYV4-2): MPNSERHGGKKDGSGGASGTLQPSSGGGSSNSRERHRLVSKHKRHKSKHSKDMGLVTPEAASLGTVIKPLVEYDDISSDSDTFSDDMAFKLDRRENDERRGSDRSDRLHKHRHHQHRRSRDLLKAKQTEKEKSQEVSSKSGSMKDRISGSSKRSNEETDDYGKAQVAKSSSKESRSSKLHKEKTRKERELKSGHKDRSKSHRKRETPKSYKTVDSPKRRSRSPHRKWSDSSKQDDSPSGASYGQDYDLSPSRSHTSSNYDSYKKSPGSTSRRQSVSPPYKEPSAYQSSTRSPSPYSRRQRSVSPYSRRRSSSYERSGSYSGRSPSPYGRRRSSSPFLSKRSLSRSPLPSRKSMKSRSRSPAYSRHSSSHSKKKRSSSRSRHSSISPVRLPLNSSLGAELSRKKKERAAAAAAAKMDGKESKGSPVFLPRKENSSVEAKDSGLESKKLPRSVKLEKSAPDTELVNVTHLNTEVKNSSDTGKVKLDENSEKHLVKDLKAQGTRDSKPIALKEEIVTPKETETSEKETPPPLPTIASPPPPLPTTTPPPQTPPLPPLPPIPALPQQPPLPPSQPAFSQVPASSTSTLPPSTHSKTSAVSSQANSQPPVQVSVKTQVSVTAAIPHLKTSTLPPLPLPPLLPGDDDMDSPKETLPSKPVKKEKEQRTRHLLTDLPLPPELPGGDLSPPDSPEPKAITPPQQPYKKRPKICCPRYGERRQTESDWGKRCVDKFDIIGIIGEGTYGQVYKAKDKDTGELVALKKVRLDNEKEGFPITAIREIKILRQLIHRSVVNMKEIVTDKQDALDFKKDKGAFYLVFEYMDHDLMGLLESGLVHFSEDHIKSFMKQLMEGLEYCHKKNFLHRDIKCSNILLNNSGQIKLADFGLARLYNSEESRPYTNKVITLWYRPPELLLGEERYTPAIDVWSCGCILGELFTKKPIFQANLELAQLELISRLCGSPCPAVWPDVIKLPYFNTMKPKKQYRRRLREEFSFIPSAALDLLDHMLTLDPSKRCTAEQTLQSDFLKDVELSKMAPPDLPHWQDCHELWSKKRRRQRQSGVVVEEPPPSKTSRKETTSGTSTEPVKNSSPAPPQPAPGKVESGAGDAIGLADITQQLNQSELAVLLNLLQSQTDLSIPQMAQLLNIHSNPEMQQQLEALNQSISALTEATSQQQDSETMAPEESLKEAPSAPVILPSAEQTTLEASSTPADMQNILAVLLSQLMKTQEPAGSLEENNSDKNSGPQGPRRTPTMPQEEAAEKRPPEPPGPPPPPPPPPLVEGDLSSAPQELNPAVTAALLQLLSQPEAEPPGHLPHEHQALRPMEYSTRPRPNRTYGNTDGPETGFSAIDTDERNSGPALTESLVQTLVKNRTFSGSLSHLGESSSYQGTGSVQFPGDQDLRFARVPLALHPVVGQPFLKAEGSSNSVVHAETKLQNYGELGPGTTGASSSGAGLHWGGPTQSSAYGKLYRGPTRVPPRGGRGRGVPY
CDK12/Cyclin K, sequence (O75909 whole entry partner): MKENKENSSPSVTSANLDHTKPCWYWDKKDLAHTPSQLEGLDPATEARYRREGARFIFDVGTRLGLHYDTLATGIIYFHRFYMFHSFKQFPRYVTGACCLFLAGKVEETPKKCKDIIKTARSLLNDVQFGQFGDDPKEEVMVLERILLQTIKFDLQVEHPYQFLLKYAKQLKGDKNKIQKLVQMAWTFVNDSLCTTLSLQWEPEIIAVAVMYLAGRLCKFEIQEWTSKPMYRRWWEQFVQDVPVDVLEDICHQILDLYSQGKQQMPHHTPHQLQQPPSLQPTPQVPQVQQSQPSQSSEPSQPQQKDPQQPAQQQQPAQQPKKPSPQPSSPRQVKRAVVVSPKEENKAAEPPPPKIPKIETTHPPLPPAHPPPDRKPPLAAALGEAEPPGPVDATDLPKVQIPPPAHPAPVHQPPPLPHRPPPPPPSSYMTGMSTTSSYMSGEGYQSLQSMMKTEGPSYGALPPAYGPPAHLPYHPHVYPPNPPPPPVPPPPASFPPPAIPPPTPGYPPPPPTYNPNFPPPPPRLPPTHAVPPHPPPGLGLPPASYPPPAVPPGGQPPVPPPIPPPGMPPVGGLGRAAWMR
CDK13/Cyclin K, sequence (O75909 whole entry): as the sequence (O75909 whole entry partner) above
CDK13/Cyclin K, sequence (Q14004 other isoform, or with tags, fused parts or gaps): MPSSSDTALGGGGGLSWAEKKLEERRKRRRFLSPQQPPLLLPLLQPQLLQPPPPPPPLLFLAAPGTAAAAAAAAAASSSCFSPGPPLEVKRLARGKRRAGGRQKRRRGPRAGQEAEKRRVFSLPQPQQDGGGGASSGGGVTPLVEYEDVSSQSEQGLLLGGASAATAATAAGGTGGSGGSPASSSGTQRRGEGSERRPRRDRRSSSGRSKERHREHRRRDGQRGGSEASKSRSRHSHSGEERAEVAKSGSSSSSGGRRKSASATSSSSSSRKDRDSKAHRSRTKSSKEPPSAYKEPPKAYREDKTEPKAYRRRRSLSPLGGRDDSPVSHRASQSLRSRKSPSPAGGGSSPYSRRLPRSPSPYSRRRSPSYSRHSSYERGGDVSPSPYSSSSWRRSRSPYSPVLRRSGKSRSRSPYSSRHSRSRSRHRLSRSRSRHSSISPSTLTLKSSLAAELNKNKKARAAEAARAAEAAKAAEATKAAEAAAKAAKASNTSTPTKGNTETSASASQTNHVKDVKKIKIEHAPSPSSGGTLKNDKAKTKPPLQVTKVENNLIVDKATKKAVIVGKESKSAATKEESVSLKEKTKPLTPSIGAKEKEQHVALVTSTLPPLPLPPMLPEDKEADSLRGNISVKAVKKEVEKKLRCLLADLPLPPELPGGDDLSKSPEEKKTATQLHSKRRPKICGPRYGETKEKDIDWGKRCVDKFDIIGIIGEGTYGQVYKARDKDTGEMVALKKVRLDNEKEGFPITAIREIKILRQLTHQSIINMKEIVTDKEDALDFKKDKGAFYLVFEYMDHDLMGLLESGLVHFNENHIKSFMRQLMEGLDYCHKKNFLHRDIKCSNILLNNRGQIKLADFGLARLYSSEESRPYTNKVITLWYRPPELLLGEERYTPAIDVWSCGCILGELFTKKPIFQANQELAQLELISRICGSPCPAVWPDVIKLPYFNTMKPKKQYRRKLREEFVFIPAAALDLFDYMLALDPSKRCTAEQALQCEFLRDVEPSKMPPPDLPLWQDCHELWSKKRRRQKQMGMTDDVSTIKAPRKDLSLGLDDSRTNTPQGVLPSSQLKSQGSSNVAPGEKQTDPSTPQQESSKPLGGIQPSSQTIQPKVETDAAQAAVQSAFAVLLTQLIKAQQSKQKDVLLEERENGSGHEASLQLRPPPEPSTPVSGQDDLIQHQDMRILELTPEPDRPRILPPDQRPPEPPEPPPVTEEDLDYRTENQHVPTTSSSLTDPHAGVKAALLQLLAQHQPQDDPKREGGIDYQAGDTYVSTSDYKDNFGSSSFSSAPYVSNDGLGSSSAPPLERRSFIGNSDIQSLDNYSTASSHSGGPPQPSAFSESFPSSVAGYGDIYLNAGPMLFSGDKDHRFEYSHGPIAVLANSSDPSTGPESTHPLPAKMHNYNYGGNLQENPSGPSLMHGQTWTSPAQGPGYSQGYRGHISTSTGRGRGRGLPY
CDK5/CDK5R1, sequence (Q00535 whole entry): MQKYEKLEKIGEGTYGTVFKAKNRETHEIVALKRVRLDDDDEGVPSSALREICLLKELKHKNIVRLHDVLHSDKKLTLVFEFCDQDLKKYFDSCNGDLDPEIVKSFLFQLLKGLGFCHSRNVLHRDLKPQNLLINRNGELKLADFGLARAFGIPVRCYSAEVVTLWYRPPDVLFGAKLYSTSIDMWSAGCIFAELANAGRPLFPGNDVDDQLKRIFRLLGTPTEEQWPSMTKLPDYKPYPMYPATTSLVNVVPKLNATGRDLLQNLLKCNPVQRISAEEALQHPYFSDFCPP
CDK5/CDK5R1, sequence (Q15078 whole entry partner): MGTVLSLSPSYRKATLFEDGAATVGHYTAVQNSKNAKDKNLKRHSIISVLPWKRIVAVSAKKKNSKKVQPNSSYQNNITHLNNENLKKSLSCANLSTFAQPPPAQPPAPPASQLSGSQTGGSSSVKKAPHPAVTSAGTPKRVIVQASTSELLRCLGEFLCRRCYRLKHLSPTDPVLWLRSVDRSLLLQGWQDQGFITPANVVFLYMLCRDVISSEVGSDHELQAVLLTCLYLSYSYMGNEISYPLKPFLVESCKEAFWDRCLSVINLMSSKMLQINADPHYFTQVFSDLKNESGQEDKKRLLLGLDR
CDK10/Cyclin L2, sequence (Q15131 whole entry): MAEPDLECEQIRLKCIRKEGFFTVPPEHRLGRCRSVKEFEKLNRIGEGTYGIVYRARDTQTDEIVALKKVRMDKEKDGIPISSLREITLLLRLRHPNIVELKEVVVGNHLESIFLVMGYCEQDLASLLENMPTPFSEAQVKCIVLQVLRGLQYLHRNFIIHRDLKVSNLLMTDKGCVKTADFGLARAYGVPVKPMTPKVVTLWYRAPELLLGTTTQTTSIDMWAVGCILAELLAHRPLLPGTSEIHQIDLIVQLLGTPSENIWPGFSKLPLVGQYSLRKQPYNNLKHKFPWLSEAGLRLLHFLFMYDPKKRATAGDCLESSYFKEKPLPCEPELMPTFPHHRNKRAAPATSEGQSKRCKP

Work on `NS(=O)(=O)c1ccc(Nc2nc(OCC3CCCCC3)c3nc[nH]c3n2)cc1` [NU6102] yielded an inhibition at 10 µM (CDK6/Cyclin D1; average) of 82.2%, an inhibition at 10 µM (CDK6/Cyclin D1; experiment 1) of 70.6% and an inhibition at 10 µM (CDK6/Cyclin D1; experiment 2) of 93.7%. The inhibition at 10 µM (CDK8/Cyclin C; average) was 11.3%, the inhibition at 10 µM (CDK8/Cyclin C; experiment 1) was 17.2% and the inhibition at 10 µM (CDK8/Cyclin C; experiment 2) was 5.4%. It also gave an inhibition at 10 µM (CDK11A/Cyclin L2; average) of 14%, an inhibition at 10 µM (CDK11A/Cyclin L2; experiment 1) of 10.4% and an inhibition at 10 µM (CDK11A/Cyclin L2; experiment 2) of 17.6%. The inhibition at 10 µM (CDK11B/Cyclin L2; average) was 27.3%, the inhibition at 10 µM (CDK11B/Cyclin L2; experiment 1) was 13.2% and the inhibition at 10 µM (CDK11B/Cyclin L2; experiment 2) was 41.4%. It also gave an inhibition at 10 µM (CDK12/Cyclin K; average) of 3.2%, an inhibition at 10 µM (CDK12/Cyclin K; experiment 1) of 8.2% and an inhibition at 10 µM (CDK12/Cyclin K; experiment 2) of -1.8%. The inhibition at 10 µM (CDK13/Cyclin K; average) was 18.1%, the inhibition at 10 µM (CDK13/Cyclin K; experiment 1) was 10.3% and the inhibition at 10 µM (CDK13/Cyclin K; experiment 2) was 25.9%. For the same compound, the inhibition at 10 µM (CDK14/Cyclin Y; average) was 13.8%, the inhibition at 10 µM (CDK14/Cyclin Y; experiment 1) was 9.9% and the inhibition at 10 µM (CDK14/Cyclin Y; experiment 2) was 17.7%. It also gave an inhibition at 10 µM (CDK15/Cyclin Y; [1]) of 28.3%, an inhibition at 10 µM (CDK15/Cyclin Y; [2]) of 10.5% and an inhibition at 10 µM (CDK15/Cyclin Y; read-out: Inhibition at 10µM (%), CDK15/Y, experiment 1) of 46.2%. It also gave an inhibition at 10 µM (CDK16/Cyclin Y; experiment 1) of 66.5%, an inhibition at 10 µM (CDK16/Cyclin Y; experiment 2) of 85.2% and an inhibition at 10 µM (CDK17/Cyclin Y; [3]) of 44.7%. It also gave an inhibition at 10 µM (CDK17/Cyclin Y; CDK17/Y, experiment 1, read-out: Inhibition at 10µM (%)) of 40.2%, an inhibition at 10 µM (CDK17/Cyclin Y; [4]) of 49.2% and an inhibition at 10 µM (CDK18/Cyclin Y; average) of 30.2%. The inhibition at 10 µM (CDK18/Cyclin Y; experiment 1) was 20.4%, the inhibition at 10 µM (CDK18/Cyclin Y; experiment 2) was 40.1% and the inhibition at 10 µM (CDK20/Cyclin H; read-out: Inhibition at 10µM (%), CDK20/H, experiment 1) was 59%. For the same compound, the inhibition at 10 µM (CDK20/Cyclin H; read-out: Inhibition at 10µM (%), CDK20/H, experiment 2) was 76.6%, the IC50 (all 21 human CDKs; remaining CDK family, live HEK-293, read-out: Collateral CDK (potency)) was greater than 1000 nM and the inhibition at 10 µM (CDK19/Cyclin C; average) was 13%. For the same compound, the inhibition at 10 µM (CDK19/Cyclin C; experiment 1) was 21%, the inhibition at 10 µM (CDK19/Cyclin C; experiment 2) was 4.9% and the inhibition at 10 µM (CDK10/Cyclin L2; average) was 64%. For the same compound, the inhibition at 10 µM (CDK10/Cyclin L2; experiment 1) was 47.6% and the inhibition at 10 µM (CDK10/Cyclin L2; experiment 2) was 80.4%.
`CC(C)(C)c1nc(-c2cccc(NS(=O)(=O)c3c(F)cccc3F)c2F)c(-c2ccnc(N)n2)s1` [Dabrafenib] showed an inhibition at 10 µM (CDK4/Cyclin D1; average) of 21.4%, an inhibition at 10 µM (CDK4/Cyclin D1; experiment 1) of 5.4% and an inhibition at 10 µM (CDK4/Cyclin D1; experiment 2) of 37.4%. For the same compound, the inhibition at 10 µM (CDK5/CDK5R1; average) was -2.2%, the inhibition at 10 µM (CDK5/CDK5R1; experiment 1) was -4.1% and the inhibition at 10 µM (CDK5/CDK5R1; experiment 2) was -0.278%. It also gave an inhibition at 10 µM (CDK8/Cyclin C; average) of -1.9%, an inhibition at 10 µM (CDK8/Cyclin C; experiment 1) of -1.4% and an inhibition at 10 µM (CDK8/Cyclin C; experiment 2) of -2.4%. The inhibition at 10 µM (CDK11A/Cyclin L2; average) was 9.5%, the inhibition at 10 µM (CDK11A/Cyclin L2; experiment 1) was 2.1% and the inhibition at 10 µM (CDK11A/Cyclin L2; experiment 2) was 16.8%. For the same compound, the inhibition at 10 µM (CDK11B/Cyclin L2; average) was 4.4%, the inhibition at 10 µM (CDK11B/Cyclin L2; experiment 1) was 2.7% and the inhibition at 10 µM (CDK11B/Cyclin L2; experiment 2) was 6%. For the same compound, the inhibition at 10 µM (CDK12/Cyclin K; average) was 20.2%, the inhibition at 10 µM (CDK12/Cyclin K; experiment 1) was 5.9% and the inhibition at 10 µM (CDK12/Cyclin K; experiment 2) was 34.6%. For the same compound, the inhibition at 10 µM (CDK13/Cyclin K; average) was 10.9%, the inhibition at 10 µM (CDK13/Cyclin K; experiment 1) was 7.1% and the inhibition at 10 µM (CDK13/Cyclin K; experiment 2) was 14.7%. For the same compound, the inhibition at 10 µM (CDK14/Cyclin Y; average) was 0.0911%, the inhibition at 10 µM (CDK14/Cyclin Y; experiment 1) was 0.459% and the inhibition at 10 µM (CDK14/Cyclin Y; experiment 2) was -0.277%. For the same compound, the inhibition at 10 µM (CDK15/Cyclin Y; [1]) was 14.6%, the inhibition at 10 µM (CDK15/Cyclin Y; CDK15/Y, experiment 1, read-out: Inhibition at 10µM (%)) was 4.4% and the inhibition at 10 µM (CDK15/Cyclin Y; [2]) was 24.7%. The inhibition at 10 µM (CDK16/Cyclin Y; experiment 1) was 1.4%, the inhibition at 10 µM (CDK16/Cyclin Y; experiment 2) was -3.4% and the inhibition at 10 µM (CDK17/Cyclin Y; [3]) was 10.2%. It also gave an inhibition at 10 µM (CDK17/Cyclin Y; [4]) of 4%, an inhibition at 10 µM (CDK17/Cyclin Y; read-out: Inhibition at 10µM (%), CDK17/Y, experiment 1) of 16.4% and an inhibition at 10 µM (CDK18/Cyclin Y; average) of 8.1%. For the same compound, the inhibition at 10 µM (CDK18/Cyclin Y; experiment 1) was 1.7%, the inhibition at 10 µM (CDK18/Cyclin Y; experiment 2) was 14.5% and the inhibition at 10 µM (CDK20/Cyclin H; CDK20/H, experiment 1, read-out: Inhibition at 10µM (%)) was 13.5%. The inhibition at 10 µM (CDK20/Cyclin H; CDK20/H, experiment 2, read-out: Inhibition at 10µM (%)) was 6.7%, the “engagement of CDKs at concentrations up to 10μM” value (all 21 human CDKs; live cells) was “only weakly engaged” and the inhibition at 10 µM (CDK19/Cyclin C; average) was -6.6%. It also gave an inhibition at 10 µM (CDK19/Cyclin C; experiment 1) of 0.8%, an inhibition at 10 µM (CDK19/Cyclin C; experiment 2) of -14% and an inhibition at 10 µM (CDK10/Cyclin L2; average) of 12.7%. The inhibition at 10 µM (CDK10/Cyclin L2; experiment 1) was 3% and the inhibition at 10 µM (CDK10/Cyclin L2; experiment 2) was 22.4%.
